Reference: patent publication US20200171065A1, “METHOD FOR TREATING LIVER DISEASE WITH KINSENOSIDE” (HUAZHONG UNIVERSITY OF SCIENCE AND TECHNOLOGY, priority 2017, published 2020)
Like-named read-outs stand apart in the source and are kept apart here.

Test system: FVB/N mice with serine/threonine kinase (AKT) overexpressed in the liver (NAFL-NASH-liver fibrosis)
[1] = high, medium and low dose groups

Description: The serine/threonine kinase (AKT) and transposase plasmids were injected into the liver of the mice by a transposition system through hydrodynamics. The serine/threonine kinase was specifically overexpressed in the liver, and the mice except the control group were modeled. One week later, nonalcoholic fatty liver (NAFL) was formed; two weeks later, steatohepatitis (NASH) was formed; and four weeks later, a primary hepatic fibrosis model was established. In the formation of NAFL-NASH-liver fibrosis, the therapeutic effect of KD was observed.

O=C1C[C@@H](O[C@@H]2O[C@H](CO)[C@@H](O)[C@H](O)[C@H]2O)CO1 [KD]
Thickness of the spleen (NAFL stage, KD 30 mg/kg, type B ultrasound): 1.65 ± 0.07 mm
IFN-γ (NASH, KD 10 mg/kg): 36.71 ± 0.32^ΔΔ pg/mL
IL-2 (NASH, KD 10 mg/kg): 101.31 ± 9.79^##Δ pg/mL
IL-10 (NASH, KD 10 mg/kg): 66.84 ± 2.73 pg/mL
IL-12 (NASH, KD 10 mg/kg): 127.64 ± 2.71 pg/mL
NO (NASH, KD 10 mg/kg): 56.22 ± 5.32^ΔΔ μmol/L
TNF-α (NASH, KD 10 mg/kg): 4.10 ± 0.04 pg/mL
IFN-γ (NASH, KD 20 mg/kg): 33.86 ± 0.65 pg/mL
IL-2 (NASH, KD 20 mg/kg): 133.29 ± 4.57 pg/mL
IL-10 (NASH, KD 20 mg/kg): 84.12 ± 0.23^##ΔΔ pg/mL
IL-12 (NASH, KD 20 mg/kg): 123.05 ± 0.71 pg/mL
NO (NASH, KD 20 mg/kg): 51.38 ± 1.08^#ΔΔ μmol/L
TNF-α (NASH, KD 20 mg/kg): 3.03 ± 0.26^##ΔΔ pg/mL
IFN-γ (NASH, KD 30 mg/kg): 32.43 ± 0.98 pg/mL
IL-2 (NASH, KD 30 mg/kg): 169.13 ± 13.10^##Δ pg/mL
IL-10 (NASH, KD 30 mg/kg): 91.20 ± 0.56^##ΔΔ pg/mL
IL-12 (NASH, KD 30 mg/kg): 106.38 ± 1.18^##Δ pg/mL
NO (NASH, KD 30 mg/kg): 48.15 ± 1.86^##ΔΔ μmol/L
TNF-α (NASH, KD 30 mg/kg): 2.35 ± 0.10^##ΔΔ pg/mL
serum ALT and AST (during development of liver fibrosis): decreased after KD treatment
expression of MMP-13 in the liver (qPCR) [1]: promoted the expression of matrix metalloproteinase-13 (MMP-13)
expression of α-SMA, Col I and TIMP-1 in the liver (qPCR) [1]: could effectively inhibit the expression
release of inflammatory response marker NO [1]: inhibited the release of the inflammatory response marker NO
secretion of IL-10 (Th2-type cells) [1]: promoted the secretion of the inflammatory cytokine IL-10
secretion of inflammatory cytokines IFN-γ, TNF-α and IL-2 (Th1) [1]: reduced the secretion of the inflammatory cytokines IFN-γ, TNF-α and IL-2
width of the inferior vena cava, left lobe thickness, right lobe obliquity and spleen thickness (ultrasound) (high, middle and low dose groups): can significantly reduce the width of the inferior vena cava, left lobe thickness, right lobe obliquity and spleen thickness
IFN-γ (liver fibrosis, KD 10 mg/kg): 85.76 ± 8.25 pg/mL
IL-2 (liver fibrosis, KD 10 mg/kg): 101.73 ± 0.70^##ΔΔ pg/mL
IL-10 (liver fibrosis, KD 10 mg/kg): 128.28 ± 24.84 pg/mL
IL-12 (liver fibrosis, KD 10 mg/kg): 253.62 ± 7.20 pg/mL
NO (liver fibrosis, KD 10 mg/kg): 52.13 ± 1.40 µmol/L
TNF-α (liver fibrosis, KD 10 mg/kg): 13.46 ± 9.31^ΔΔ pg/mL
IFN-γ (liver fibrosis, KD 20 mg/kg): 57.19 ± 1.65^##ΔΔ pg/mL
IL-2 (liver fibrosis, KD 20 mg/kg): 104.72 ± 0.71^##ΔΔ pg/mL
IL-10 (liver fibrosis, KD 20 mg/kg): 206.66 ± 1.91^##ΔΔ pg/mL
IL-12 (liver fibrosis, KD 20 mg/kg): 174.77 ± 2.72 pg/mL
NO (liver fibrosis, KD 20 mg/kg): 54.11 ± 15.40 µmol/L
TNF-α (liver fibrosis, KD 20 mg/kg): 8.41 ± 0.52 pg/mL
IFN-γ (liver fibrosis, KD 30 mg/kg): 53.38 ± 1.65^##ΔΔ pg/mL
IL-2 (liver fibrosis, KD 30 mg/kg): 93.91 ± 2.05^##ΔΔ pg/mL
IL-10 (liver fibrosis, KD 30 mg/kg): 140.44 ± 7.64 pg/mL
IL-12 (liver fibrosis, KD 30 mg/kg): 242.08 ± 5.44 pg/mL
NO (liver fibrosis, KD 30 mg/kg): 59.06 ± 1.40 µmol/L
TNF-α (liver fibrosis, KD 30 mg/kg): 2.38 ± 0.57 pg/mL
fiber formation (Masson staining) (mouse, in vivo): had inhibitory effect on the fiber formation
oxidative stress injuries (MDA, SOD) (mouse, in vivo): could reverse these oxidative stress injuries
secretion of ALT, AST and inflammatory cytokines (mouse, in vivo): did not affect the secretion of ALT, AST and inflammatory cytokines
shear wave velocity of SWE (liver) (mouse, in vivo): could significantly reduce the shear wave velocity
